Reference: the supplement of paper PMC10721915
± gives the standard deviation of the averaged measurements.

Compound: COc1ccc([C@@H](O)c2cc(-c3ncnc4cc(N5CCOCC5)ccc34)c(F)cc2Cl)nn1 [peposertib]
Experiment: relative cell growth vs untreated control (GI, NCI-DTP normalisation with time-zero) (fraction of control growth); higher = more growth / less inhibition
Conditions: treatment time: 120 h
Experimental: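 Cancer cell lines were treated with peposertib (DNA-PK inhibitor) combined with gamma ionizing radiation (0, 2, 3 or 6 Gy) for 120 h, starting 48 h after seeding. Read-out was sulforhodamine B total-protein staining, normalised to untreated control and time-zero wells (NCI-DTP GI convention).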

[1] = peposertib concentration 0.00488 µM, gamma irradiation dose (Gy): 0
[2] = peposertib concentration 0.0195 µM, gamma irradiation dose (Gy): 0
[3] = peposertib concentration 0.0781 µM, gamma irradiation dose (Gy): 0
[4] = peposertib concentration 0.313 µM, gamma irradiation dose (Gy): 0
[5] = peposertib concentration 1.25 µM, gamma irradiation dose (Gy): 0
[6] = peposertib concentration 5 µM, gamma irradiation dose (Gy): 0
[7] = peposertib concentration 0.00488 µM, gamma irradiation dose (Gy): 3
[8] = peposertib concentration 0.0195 µM, gamma irradiation dose (Gy): 3
[9] = peposertib concentration 0.0781 µM, gamma irradiation dose (Gy): 3
[10] = peposertib concentration 0.313 µM, gamma irradiation dose (Gy): 3
[11] = peposertib concentration 1.25 µM, gamma irradiation dose (Gy): 3
[12] = peposertib concentration 5 µM, gamma irradiation dose (Gy): 3

Row | Test System | relative cell growth [1] | relative cell growth [2] | relative cell growth [3] | relative cell growth [4] | relative cell growth [5] | relative cell growth [6] | relative cell growth [7] | relative cell growth [8] | relative cell growth [9] | relative cell growth [10] | relative cell growth [11] | relative cell growth [12]
1 | A204 | 1.06 | 1.01 | 0.892 | 0.616 | 0.298 | 0.0711 | – | – | – | – | – | –
2 | A549 | 1.031 ± 0.01 | 1.02 ± 0.014 | 0.966 ± 0.019 | 0.782 ± 0.071 | 0.442 ± 0.079 | 0.113 ± 0.013 | 0.766 | 0.613 | 0.256 | 0.0863 | 0.0255 | 0.0147
3 | A2780 | 1.03 | 1.04 | 1.02 | 0.999 | 0.858 | 0.156 | – | – | – | – | – | –
4 | ASPC1 | 1.1 | 0.966 | 1 | 0.891 | 0.67 | 0.22 | – | – | – | – | – | –
5 | BXPC3 | 0.935 | 0.946 | 0.903 | 0.789 | 0.437 | 0.137 | – | – | – | – | – | –
6 | CACO2 | 0.994 ± 0.066 | 0.959 ± 0.018 | 0.92 ± 0.033 | 0.85 ± 0.0095 | 0.644 ± 0.03 | 0.238 ± 0.01 | 0.722 | 0.713 | 0.595 | 0.322 | 0.195 | 0.098
7 | COLO205 | 0.984 ± 0.071 | 0.996 ± 0.039 | 1.01 ± 0.044 | 0.969 ± 0.029 | 0.7949 ± 0.007 | 0.351 ± 0.04 | 0.413 | 0.367 | 0.203 | 0.0736 | 0.0589 | 0.0686
8 | DLD1 | 1.01 ± 0.015 | 0.997 ± 0.014 | 1 ± 0.042 | 0.959 ± 0.033 | 0.842 ± 0.09 | 0.445 ± 0.091 | 0.55 | 0.518 | 0.389 | 0.137 | 0.0235 | 0.00897
9 | DU145 | 0.999 | 0.996 | 0.96 | 0.874 | 0.618 | 0.287 | – | – | – | – | – | –
10 | EFO21 | 1.05 | 1.04 | 0.909 | 0.667 | 0.352 | 0.141 | – | – | – | – | – | –
11 | EJ28 | 1.05 | 1.02 | 1.02 | 0.945 | 0.824 | 0.554 | – | – | – | – | – | –
12 | HCT15 | 0.998 ± 0.048 | 0.896 ± 0.056 | 1.002 ± 0.0063 | 0.964 ± 0.028 | 0.792 ± 0.062 | 0.301 ± 0.074 | 0.555 | 0.482 | 0.298 | 0.147 | 0.0634 | 0.0278
13 | HEPG2 | 0.956 | 0.977 | 0.977 | 0.91 | 0.603 | 0.211 | – | – | – | – | – | –
14 | HL60 | 0.998 | 0.975 | 0.929 | 0.808 | 0.526 | 0.238 | – | – | – | – | – | –
15 | HS578T | 1.01 | 1.01 | 1.02 | 0.947 | 0.581 | 0.182 | – | – | – | – | – | –
16 | HS729 | 1.05 | 1.06 | 1.02 | 0.867 | 0.716 | 0.422 | – | – | – | – | – | –
17 | HT29 | 0.978 ± 0.029 | 0.9825 ± 0.0091 | 0.974 ± 0.023 | 0.906 ± 0.03 | 0.658 ± 0.021 | 0.252 ± 0.0096 | 0.885 | 0.857 | 0.642 | 0.152 | 0.0553 | 0.0433
18 | HT1080 | 1.08 | 1.09 | 1.08 | 1.11 | 1.11 | 1 | – | – | – | – | – | –

Row | Test System | relative cell growth [1] | relative cell growth [2] | relative cell growth [3] | relative cell growth [4] | relative cell growth [5] | relative cell growth [6] | relative cell growth [7] | relative cell growth [8] | relative cell growth [9] | relative cell growth [10] | relative cell growth [11] | relative cell growth [12]
19 | IGROV1 | 1.02 | 1.02 | 0.965 | 0.789 | 0.22 | -0.0182 | – | – | – | – | – | –
20 | J82 | 1.02 | 1.03 | 0.991 | 0.876 | 0.64 | 0.377 | – | – | – | – | – | –
21 | JIMT1 | 0.999 | 1.01 | 0.999 | 0.906 | 0.561 | 0.232 | – | – | – | – | – | –
22 | KASUMI1 | 0.984 | 0.968 | 0.859 | 0.577 | 0.181 | -0.0751 | – | – | – | – | – | –
23 | L363 | 0.996 | 1 | 0.98 | 0.813 | 0.39 | 0.0471 | – | – | – | – | – | –
24 | LOVO | 1.01 ± 0.055 | 0.946 ± 0.026 | 0.83 ± 0.068 | 0.617 ± 0.11 | 0.348 ± 0.083 | 0.16 ± 0.064 | 0.384 | 0.357 | 0.28 | 0.186 | 0.0588 | 0.00966
25 | MDAMB231 | 1.11 | 1.1 | 1.06 | 1.04 | 0.995 | 0.84 | – | – | – | – | – | –
26 | MDAMB435 | 0.989 | 1.03 | 1.02 | 0.924 | 0.721 | 0.207 | – | – | – | – | – | –
27 | MDAMB436 | 1.04 | 0.987 | 0.992 | 0.795 | 0.541 | 0.188 | – | – | – | – | – | –
28 | MDAMB468 | 1.04 | 0.969 | 0.942 | 0.794 | 0.556 | 0.222 | – | – | – | – | – | –
29 | MHHES1 | 0.994 | 0.99 | 0.974 | 0.915 | 0.776 | 0.458 | – | – | – | – | – | –
30 | MIAPACA2 | 1.05 ± 0.024 | 1.07 ± 0.072 | 1.01 ± 0.022 | 0.991 ± 0.07 | 0.891 ± 0.18 | 0.611 ± 0.18 | 0.592 | 0.546 | 0.286 | 0.086 | 0.0368 | 0.0246
31 | MINO | 0.833 | 0.904 | 0.937 | 0.73 | 0.326 | 0.0668 | – | – | – | – | – | –
32 | MT3 | 0.994 | 0.98 | 0.951 | 0.828 | 0.415 | 0.0961 | – | – | – | – | – | –
33 | MV411 | 0.937 | 0.935 | 0.924 | 0.793 | 0.383 | 0.0939 | – | – | – | – | – | –
34 | NCIH82 | 0.982 ± 0.048 | 1.016 ± 0.0085 | 0.988 ± 0.034 | 0.892 ± 0.15 | 0.718 ± 0.24 | 0.422 ± 0.055 | 0.219 | 0.187 | 0.11 | 0.0372 | 0.0097 | 0.000329
35 | NCIH292 | 0.959 ± 0.031 | 1.017 ± 0.0086 | 0.924 ± 0.039 | 0.684 ± 0.078 | 0.33 ± 0.064 | 0.00769 ± 0.042 | 0.526 | 0.511 | 0.357 | 0.21 | 0.0579 | -0.0162
